≈ marks a conversion by molar mass, not a printed value. Where two headings read alike, the source gives them in different places.
Key:
Experiment in all cases: MIC (Minimum Inhibitory Concentration)
Type in all cases: cell-based
Candida albicans = test system: Candida albicans
Fusarium (bulb) = Fusarium (bulb) A 3252
Fusarium (tulip) = Fusarium (tulip) A 3253
Fusarium solani = conditions: read-out: MIC values
Rhizoctonia solani = conditions: read-out: MIC values
Trichophyton equinum = test system: Trichophyton equinum
[1] = test system: Trichophyton mentagrophytus
Trichophyton quickeaneum = conditions: read-out: MIC values
Trichophyton rubrum = test system: Trichophyton rubrum
[2] = test system: Trichophyton schoenleinii; conditions: read-out: MIC values
[3] = test system: Trichophyton soudanese joyeux; conditions: read-out: MIC values
Trichophyton violoceum = conditions: read-out: MIC values

[C-]#[N+]C(=Cc1ccccc1)S(=O)(=O)c1ccc(C)cc1 [Example 1, 1-isocyano-2-phenyl-1-(4-toluenesulphonyl)-ethene]
MIC (Candida albicans; Candida albicans A 7, read-out: MIC values): 1.5 µg/mL (≈ 5.29 µM)
MIC (Candida albicans; Candida albicans A 3140, read-out: MIC values): 12.5 µg/mL (≈ 44.1 µM)
MIC (Candida albicans; Candida albicans A 3141, read-out: MIC values): 12.5 µg/mL (≈ 44.1 µM)
MIC (Candida albicans; Candida albicans A 3142, read-out: MIC values): 12.5 µg/mL (≈ 44.1 µM)
MIC (Candida albicans; Candida albicans A 3143, read-out: MIC values): 12.5 µg/mL (≈ 44.1 µM)
MIC (Candida albicans; Candida albicans A 3144, read-out: MIC values): 12.5 µg/mL (≈ 44.1 µM)
MIC (Candida albicans; Candida albicans A 3145, read-out: MIC values): 12.5 µg/mL (≈ 44.1 µM)
MIC (Candida albicans; Candida albicans A 3165, read-out: MIC values): 25 µg/mL (≈ 88.2 µM)
MIC (Candida albicans; Candida albicans A 3166, read-out: MIC values): 12.5 µg/mL (≈ 44.1 µM)
MIC (Candida albicans; Candida albicans A 3167, read-out: MIC values): 25 µg/mL (≈ 88.2 µM)
MIC (Candida albicans; Candida albicans A 3168, read-out: MIC values): 12.5 µg/mL (≈ 44.1 µM)
MIC (Candida albicans; Candida albicans A 3169, read-out: MIC values): 12.5 µg/mL (≈ 44.1 µM)
MIC (Candida albicans; Candida albicans A 3171, read-out: MIC values): 12.5 µg/mL (≈ 44.1 µM)
MIC (Candida albicans; Candida albicans A 3184, read-out: MIC values): 12.5 µg/mL (≈ 44.1 µM)
MIC (Candida albicans; Candida albicans A 3190, read-out: MIC values): 6 µg/mL (≈ 21.2 µM)
MIC (Candida albicans; Candida albicans A 3191, read-out: MIC values): 12.5 µg/mL (≈ 44.1 µM)
MIC (Candida albicans; Candida albicans A 3192, read-out: MIC values): 6 µg/mL (≈ 21.2 µM)
MIC (Candida albicans; Candida albicans A 3194, read-out: MIC values): 25 µg/mL (≈ 88.2 µM)
MIC (Candida albicans; Candida albicans A 3196, read-out: MIC values): 12.5 µg/mL (≈ 44.1 µM)
MIC (Fusarium (bulb)): > 100 µg/mL
MIC (Fusarium (tulip)): 50 µg/mL (≈ 176 µM)
MIC (Fusarium solani; Fusarium solani A 3245): 50 µg/mL (≈ 176 µM)
MIC (Rhizoctonia solani; Rhizoctonia solani 200-25): 4.5 µg/mL (≈ 15.9 µM)
MIC (Trichophyton equinum; Trichophyton equinum 182-76, read-out: MIC values): 3 µg/mL (≈ 10.6 µM)
MIC (Trichophyton equinum; Trichophyton equinum 856-71, read-out: MIC values): 3 µg/mL (≈ 10.6 µM)
MIC ([1]; Trichophyton mentagrophytus 367-68, read-out: MIC values): 1.5 µg/mL (≈ 5.29 µM)
MIC ([1]; Trichophyton mentagrophytus 421-67, read-out: MIC values): 1.5 µg/mL (≈ 5.29 µM)
MIC ([1]; Trichophyton mentagrophytus A 3252, read-out: MIC values): 1.5 µg/mL (≈ 5.29 µM)
MIC ([1]; Trichophyton mentagrophytus R 177, read-out: MIC values): 6 µg/mL (≈ 21.2 µM)
MIC ([1]; Trichophyton mentagrophytus R 178, read-out: MIC values): > 100 µg/mL
MIC ([1]; Trichophyton mentagrophytus RRL 305, read-out: MIC values): 6 µg/mL (≈ 21.2 µM)
MIC (Trichophyton quickeaneum; Trichophyton quickeaneum A 2040): 3 µg/mL (≈ 10.6 µM)
MIC (Trichophyton rubrum; Trichophyton rubrum 494-62, read-out: MIC values): 0.1 µg/mL (≈ 0.353 µM)
MIC ([2]; Trichophyton schoenleinii 435-63): 0.1 µg/mL (≈ 0.353 µM)
MIC ([3]; Trichophyton soudanese joyeux 440-63): 12.5 µg/mL (≈ 44.1 µM)
MIC (Trichophyton violoceum; Trichophyton violoceum 442-62): 0.1 µg/mL (≈ 0.353 µM)

[C-]#[N+]C(=C1CCCCC1)S(=O)(=O)c1ccc(C)cc1 [Example 7, a-cyclohexylidene-a-(4-toluenesulphonyl)-methylisocyanide]
MIC (Candida albicans; read-out: MIC values, Candida albicans A 7): 0.8 µg/mL (≈ 2.91 µM)
MIC (Candida albicans; read-out: MIC values, Candida albicans A 3140): 3 µg/mL (≈ 10.9 µM)
MIC (Candida albicans; read-out: MIC values, Candida albicans A 3141): 12.5 µg/mL (≈ 45.4 µM)
MIC (Candida albicans; read-out: MIC values, Candida albicans A 3142): 12.5 µg/mL (≈ 45.4 µM)
MIC (Candida albicans; read-out: MIC values, Candida albicans A 3143): 6 µg/mL (≈ 21.8 µM)
MIC (Candida albicans; read-out: MIC values, Candida albicans A 3144): 6 µg/mL (≈ 21.8 µM)
MIC (Candida albicans; read-out: MIC values, Candida albicans A 3145): 6 µg/mL (≈ 21.8 µM)
MIC (Candida albicans; read-out: MIC values, Candida albicans A 3165): 6 µg/mL (≈ 21.8 µM)
MIC (Candida albicans; read-out: MIC values, Candida albicans A 3166): 6 µg/mL (≈ 21.8 µM)
MIC (Candida albicans; read-out: MIC values, Candida albicans A 3167): 6 µg/mL (≈ 21.8 µM)
MIC (Candida albicans; read-out: MIC values, Candida albicans A 3168): 6 µg/mL (≈ 21.8 µM)
MIC (Candida albicans; read-out: MIC values, Candida albicans A 3169): 6 µg/mL (≈ 21.8 µM)
MIC (Candida albicans; read-out: MIC values, Candida albicans A 3171): 6 µg/mL (≈ 21.8 µM)
MIC (Candida albicans; read-out: MIC values, Candida albicans A 3184): 3 µg/mL (≈ 10.9 µM)
MIC (Candida albicans; read-out: MIC values, Candida albicans A 3190): 3 µg/mL (≈ 10.9 µM)
MIC (Candida albicans; read-out: MIC values, Candida albicans A 3191): 6 µg/mL (≈ 21.8 µM)
MIC (Candida albicans; read-out: MIC values, Candida albicans A 3192): 6 µg/mL (≈ 21.8 µM)
MIC (Candida albicans; read-out: MIC values, Candida albicans A 3194): 6 µg/mL (≈ 21.8 µM)
MIC (Candida albicans; read-out: MIC values, Candida albicans A 3196): 12.5 µg/mL (≈ 45.4 µM)
MIC (Fusarium (bulb)): 18.8 µg/mL (≈ 68.3 µM)
MIC (Fusarium (tulip)): 12.5 µg/mL (≈ 45.4 µM)
MIC (Fusarium solani; Fusarium solani): 12.5 µg/mL (≈ 45.4 µM)
MIC (Rhizoctonia solani; Rhizoctonia solani): 1.5 µg/mL (≈ 5.45 µM)
MIC (Trichophyton equinum; read-out: MIC values, Trichophyton equinum 182-76): 3 µg/mL (≈ 10.9 µM)
MIC (Trichophyton equinum; read-out: MIC values, Trichophyton equinum 856-71): 3 µg/mL (≈ 10.9 µM)
MIC ([1]; read-out: MIC values, Trichophyton mentagrophytus 367-68): 0.8 µg/mL (≈ 2.91 µM)
MIC ([1]; read-out: MIC values, Trichophyton mentagrophytus 421-67): 1.5 µg/mL (≈ 5.45 µM)
MIC ([1]; read-out: MIC values, Trichophyton mentagrophytus A 3252): 0.8 µg/mL (≈ 2.91 µM)
MIC ([1]; read-out: MIC values, Trichophyton mentagrophytus R 177): 3 µg/mL (≈ 10.9 µM)
MIC ([1]; read-out: MIC values, Trichophyton mentagrophytus R 178): 12.5 µg/mL (≈ 45.4 µM)
MIC ([1]; read-out: MIC values, Trichophyton mentagrophytus RRL 305): 1.5 µg/mL (≈ 5.45 µM)
MIC (Trichophyton quickeaneum; Trichophyton): 0.8 µg/mL (≈ 2.91 µM)
MIC (Trichophyton rubrum; read-out: MIC values, Trichophyton rubrum 494-62): 0.8 µg/mL (≈ 2.91 µM)
MIC (Trichophyton rubrum; read-out: MIC values, Trichophyton rubrum A 810): 0.8 µg/mL (≈ 2.91 µM)
MIC ([2]; Trichophyton schoenleinii): 0.2 µg/mL (≈ 0.726 µM)
MIC ([3]; Trichophyton): 12.5 µg/mL (≈ 45.4 µM)
MIC (Trichophyton violoceum; Trichophyton): 0.2 µg/mL (≈ 0.726 µM)
